Laboratory results published in ChEMBL document CHEMBL5316269, “Rational Design of a New RXR Agonist Scaffold Enabling Single-Subtype Preference for RXRα, RXRβ, and RXRγ” (J Med Chem, 2023).

How the values were obtained:
[1] = target: T1, Retinoic acid receptor RXR-alpha (Homo sapiens, UniProt P19793); assay: Agonist activity at human GAL4-fused RXRalpha LBD expressed in human HEK293T cells cotransfected with pFR-Luc and pRL-SV40 assessed as increase in luciferase activity incubated for 16 hrs by Dual-Glo luciferase assay; type: cell-based
T1 sequence (P19793 whole entry): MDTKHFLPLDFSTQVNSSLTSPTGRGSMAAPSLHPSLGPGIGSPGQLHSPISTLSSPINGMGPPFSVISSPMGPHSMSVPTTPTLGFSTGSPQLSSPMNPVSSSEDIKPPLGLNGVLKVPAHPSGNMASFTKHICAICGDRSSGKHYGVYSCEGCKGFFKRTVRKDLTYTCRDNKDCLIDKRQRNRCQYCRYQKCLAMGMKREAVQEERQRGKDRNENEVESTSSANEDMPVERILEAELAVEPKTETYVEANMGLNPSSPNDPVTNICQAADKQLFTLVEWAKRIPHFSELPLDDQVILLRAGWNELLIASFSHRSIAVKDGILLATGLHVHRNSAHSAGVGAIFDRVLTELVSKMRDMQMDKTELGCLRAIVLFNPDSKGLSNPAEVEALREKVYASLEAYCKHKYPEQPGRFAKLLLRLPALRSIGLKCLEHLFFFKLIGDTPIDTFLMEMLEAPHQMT

[2] = target: T2, Retinoic acid receptor RXR-gamma (Homo sapiens, UniProt P48443); assay: Agonist activity at human GAL4-fused RXRgamma LBD expressed in human HEK293T cells cotransfected with pFR-Luc and pRL-SV40 assessed as increase in luciferase activity incubated for 16 hrs by Dual-Glo luciferase assay; type: cell-based
T2 sequence (P48443 whole entry): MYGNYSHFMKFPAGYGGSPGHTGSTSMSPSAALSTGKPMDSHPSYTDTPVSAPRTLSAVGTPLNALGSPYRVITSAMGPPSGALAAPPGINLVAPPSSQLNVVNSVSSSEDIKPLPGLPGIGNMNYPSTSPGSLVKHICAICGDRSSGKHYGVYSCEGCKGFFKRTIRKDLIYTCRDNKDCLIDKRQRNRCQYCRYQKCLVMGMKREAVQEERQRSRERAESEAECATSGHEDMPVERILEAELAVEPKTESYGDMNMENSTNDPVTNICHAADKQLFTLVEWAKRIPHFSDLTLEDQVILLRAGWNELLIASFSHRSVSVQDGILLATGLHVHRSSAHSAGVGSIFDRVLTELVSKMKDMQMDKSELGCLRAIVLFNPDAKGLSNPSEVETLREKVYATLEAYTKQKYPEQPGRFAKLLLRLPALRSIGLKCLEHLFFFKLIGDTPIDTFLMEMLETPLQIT

[3] = target: T3, Retinoic acid receptor RXR-beta (Homo sapiens, UniProt P28702); assay: Agonist activity at human GAL4-fused RXRbeta LBD expressed in human HEK293T cells cotransfected with pFR-Luc and pRL-SV40 assessed as increase in luciferase activity incubated for 16 hrs by Dual-Glo luciferase assay; type: cell-based
T3 sequence (P28702 whole entry): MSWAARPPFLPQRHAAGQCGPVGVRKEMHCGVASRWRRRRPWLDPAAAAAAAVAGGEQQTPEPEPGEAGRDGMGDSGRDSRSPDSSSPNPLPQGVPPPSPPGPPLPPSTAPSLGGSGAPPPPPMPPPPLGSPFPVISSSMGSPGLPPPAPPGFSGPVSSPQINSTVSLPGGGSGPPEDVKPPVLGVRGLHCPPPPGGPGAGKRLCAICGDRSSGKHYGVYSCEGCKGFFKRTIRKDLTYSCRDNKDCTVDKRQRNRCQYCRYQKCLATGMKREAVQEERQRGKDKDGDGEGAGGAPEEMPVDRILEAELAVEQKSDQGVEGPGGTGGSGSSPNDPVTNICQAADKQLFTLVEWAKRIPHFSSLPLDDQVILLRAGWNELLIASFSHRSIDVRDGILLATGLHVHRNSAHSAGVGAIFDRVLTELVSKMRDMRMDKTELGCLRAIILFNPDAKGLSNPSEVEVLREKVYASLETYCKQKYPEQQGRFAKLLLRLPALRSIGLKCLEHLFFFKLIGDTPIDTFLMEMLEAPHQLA

HEK-293T [4] = assay: Cytotoxicity in human HEK293T cells coexpressing GAL4-fused RXRalpha LBD, pFR-Luc and pRL-SV40 assessed as reduction in cell viability at > 10 uM incubated for 16 hrs by Dual-Glo luciferase assay; type: toxicity, cell-based
HEK-293T [5] = assay: Cytotoxicity in human HEK293T cells coexpressing GAL4-fused RXRbeta LBD, pFR-Luc and pRL-SV40 assessed as reduction in cell viability at > 10 uM incubated for 16 hrs by Dual-Glo luciferase assay; type: toxicity, cell-based
HEK-293T [6] = assay: Cytotoxicity in human HEK293T cells coexpressing GAL4-fused RXRgamma LBD, pFR-Luc and pRL-SV40 assessed as reduction in cell viability at > 10 uM incubated for 16 hrs by Dual-Glo luciferase assay; type: toxicity, cell-based
PXR (NR1I2) [7] = target: T4, PXR (NR1I2) (Homo sapiens, UniProt O75469); assay: Agonist activity at human GAL4-fused PXR LBD expressed in human HEK293T cells cotransfected with pFR-Luc and pRL-SV40 assessed as increase in luciferase activity at 1 uM incubated for 16 hrs by Dual-Glo luciferase assay relative to control; type: cell-based; conditions: HEK293T cells expressing GAL4-fused PXR LBD, read-out: Activity
T4 sequence (O75469 whole entry): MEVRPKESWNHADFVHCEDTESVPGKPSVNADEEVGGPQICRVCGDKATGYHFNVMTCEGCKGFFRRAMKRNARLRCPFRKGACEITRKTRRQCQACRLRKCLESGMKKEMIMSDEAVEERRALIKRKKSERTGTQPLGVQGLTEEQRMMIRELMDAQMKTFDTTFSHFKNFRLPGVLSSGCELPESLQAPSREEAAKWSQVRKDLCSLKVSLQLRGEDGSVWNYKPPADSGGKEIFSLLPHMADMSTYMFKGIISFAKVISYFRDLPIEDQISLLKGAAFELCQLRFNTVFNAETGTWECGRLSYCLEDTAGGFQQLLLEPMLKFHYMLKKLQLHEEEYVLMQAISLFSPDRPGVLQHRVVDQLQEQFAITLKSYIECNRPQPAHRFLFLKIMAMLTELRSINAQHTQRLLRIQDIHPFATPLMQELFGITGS

CAR (NR1I3) [8] = target: T5, CAR (NR1I3) (Homo sapiens, UniProt Q14994); assay: Agonist activity at human GAL4-fused CAR LBD expressed in human HEK293T cells cotransfected with pFR-Luc and pRL-SV40 assessed as increase in luciferase activity at 1 uM incubated for 16 hrs by Dual-Glo luciferase assay relative to control; type: cell-based; conditions: HEK293T cells expressing GAL4-fused CAR LBD, read-out: Activity
T5 sequence (Q14994 whole entry): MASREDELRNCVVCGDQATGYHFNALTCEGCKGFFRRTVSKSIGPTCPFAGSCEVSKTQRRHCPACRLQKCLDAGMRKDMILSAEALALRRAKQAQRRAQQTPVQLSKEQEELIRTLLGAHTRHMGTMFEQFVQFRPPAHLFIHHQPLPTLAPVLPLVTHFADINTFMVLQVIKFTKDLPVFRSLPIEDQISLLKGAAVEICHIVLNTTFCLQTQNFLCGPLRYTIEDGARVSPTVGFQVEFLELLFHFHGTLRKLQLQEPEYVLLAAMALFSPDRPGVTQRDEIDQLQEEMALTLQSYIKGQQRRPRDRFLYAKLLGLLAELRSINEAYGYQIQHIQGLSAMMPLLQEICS

[9] = target: T1, Retinoic acid receptor RXR-alpha; assay: Binding affinity to human RXRalpha LBD and measured for 180 sec by ITC analysis
PXR (NR1I2) [10] = target: T4, PXR (NR1I2); assay: Agonist activity at human GAL4-fused PXR LBD expressed in human HEK293T cells cotransfected with pFR-Luc and pRL-SV40 assessed as increase in luciferase activity at 30 uM incubated for 16 hrs by Dual-Glo luciferase assay relative to control; type: cell-based; conditions: HEK293T cells expressing GAL4-fused PXR LBD, read-out: Activity
CAR (NR1I3) [11] = target: T5, CAR (NR1I3); assay: Agonist activity at human GAL4-fused CAR LBD expressed in human HEK293T cells cotransfected with pFR-Luc and pRL-SV40 assessed as increase in luciferase activity at 30 uM incubated for 16 hrs by Dual-Glo luciferase assay relative to control; type: cell-based; conditions: HEK293T cells expressing GAL4-fused CAR LBD, read-out: Activity
[12] = target: T2, Retinoic acid receptor RXR-gamma; assay: Binding affinity to human RXRgamma LBD and measured for 180 sec by ITC analysis

With `O=C(O)c1cccc(COc2cccc3c2CCC3)c1` the EC50 [1] was 7 µM.

`Cc1ccc(OCc2ccc(C(=O)O)cc2)c2c1CCC2` gave an EC50 [2] of 5 µM.

With `Cc1ccc(OCc2ccc(C(=O)O)c(F)c2)c2c1CCC2` the EC50 [3] was 2.9 µM and the EC50 [2] was 11 µM.

`Cc1ccc(OCc2ccc(CCC(=O)O)cc2)c2c1CCC2` showed an EC50 [3] of 1.1 µM.

`Cc1ccc(COc2ccc(C)c3c2CCC3)cc1CC(=O)O` was tested, and the Activity (HEK-293T [4]) was “Toxic”, the Activity (HEK-293T [5]) was “Toxic” and the Activity (HEK-293T [6]) was “Toxic”.

`Cc1ccc(COc2cccc3c2CCC3)cc1CC(=O)O` was tested, and the Activity (HEK-293T [4]) was “Toxic”, the Activity (HEK-293T [5]) was “Toxic” and the Activity (HEK-293T [6]) was “Toxic”.

In the case of `Cc1cc(COc2cccc3c2CCC3)ccc1CC(=O)O`, the EC50 [1] is reported as 43 µM and the EC50 [3] is reported as 43 µM.

`O=C(O)c1ccc(COc2cccc3c2CCC3)cc1` showed an EC50 [1] of 1.2 µM and an EC50 [3] of 1.5 µM.

In the case of `Cc1ccc(OCc2ccc(CC(=O)O)cc2)c2c1CCC2`, the EC50 [1] is reported as 2.4 µM and the EC50 [3] is reported as 2.5 µM.

`Cc1cc(COc2cccc3c2CCC3)ccc1C(=O)O` showed an EC50 [1] of 23 µM.

With `O=C(O)CCc1ccc(COc2cccc3c2CCC3)cc1` the EC50 [1] was 0.6 µM and the EC50 [2] was 2.6 µM.

`Cc1cc(COc2ccc(C)c3c2CCC3)ccc1CCC(=O)O` was tested, and the EC50 [1] was 0.36 µM, the activity at 16 h, 1 µM (PXR (NR1I2) [7]) was 12% and the activity at 16 h, 1 µM (CAR (NR1I3) [8]) was 6%. The Kd [9] was 0.2 µM.

`CN(Cc1ccc(C(=O)O)cc1)c1cccc2c1CCC2` showed an EC50 [1] of 4.1 µM and an EC50 [2] of 14 µM.

With `O=C(O)c1ccc(COc2cccc3c2CCC3)cc1F` the EC50 [1] was 0.8 µM.

In the case of `O=C(O)c1ccc(CNc2cccc3c2CCC3)cc1`, the EC50 [1] is reported as 3.1 µM and the EC50 [2] is reported as 13 µM.

`O=C(O)CCc1ccc(COc2cccc3c2CCC3)cc1F` gave an EC50 [1] of 2.2 µM, an EC50 [3] of 2.8 µM and an EC50 [2] of 11 µM.

For `Cc1ccc(OCc2ccc(CCC(=O)O)c(Cl)c2)c2c1CCC2`, the EC50 [1] was 7 µM, the EC50 [3] was 8 µM and the EC50 [2] was 10.6 µM.

In the case of `Cc1ccc(OCc2ccc(CCC(=O)O)c(F)c2)c2c1CCC2`, the EC50 [2] is reported as 14 µM, the activity at 16 h, 30 µM (PXR (NR1I2) [10]) is reported as 15% and the activity at 16 h, 30 µM (CAR (NR1I3) [11]) is reported as 9%. It also gave a Kd [12] of 6 µM.

With `CC1=C2[C@H](/C=C(\C)C(=O)O)CC[C@@H](C)[C@H]2CC1` [VALERENIC ACID] the EC50 [3] was 5 µM.
